Assay results: patent US20220242870A1, “HETEROCYCLE-FUSED PYRIMIDINE DERIVATIVE AND USE THEREOF” (VORONOI Inc., priority 2019, published 2022)

Experiments:
CDK4-cyclinD1 [1] = biological target: T1, CDK4-cyclinD1 (Homo sapiens, UniProt P11802); assay: scanMAX kinase assay panel; assay type: binding; parameters: purchased DiscoverX (scanMAX panel, contract assay); details: read-out: control percentage (% control)
Description: The activities of the compounds according to the present invention to more diverse enzymes were evaluated. Specifically, it was decided that the enzyme selectivity of Example 74 selected from the compounds of Examples 1 to 129 was measured at the request of DiscoverX, and the experiment was conducted using a scanMAX™ kinase assay panel. At this time, as a drug to treat the enzyme, a solution prepared by dissolving in DMSO at a concentration of 1 μM was used, and the control percentage (% control) was determined by the method of Equation 1 below, and the results were shown in Table 2 below.
In Equation above, the positive control and negative control mean compounds showing control percentages of 0% and 100% as DMSO, respectively.

CDK4-cyclinD1 [2] = biological target: T1, CDK4-cyclinD1; assay: CDK4 enzyme inhibitory ability (Reaction Biology); assay type: biochemical; parameters: purchased Reaction Biology (USA), contract assay; details: measured in Reaction Biology (USA)
Description: In order to evaluate the CDK4 and CDK6 enzyme inhibitory activities of the example compounds according to the present invention, IC5O (nM) was measured for the CDK4 cyclin D1 and CDK6 cyclin D1 enzymes in Reaction Biology (USA), and the results were shown in Table 3 below.

human GST-HPK1 (1-346) = biological target: T2, human GST-HPK1 (1-346) (Homo sapiens, UniProt Q92918); assay: HPK1 enzyme inhibitory ability (ADP-Glo kinase assay); assay type: biochemical; details: human GST-HPK1 3 ng, ATP 3 uM, 25° C. 2 hours
T2 construct: purified human GST-HPK1 (1-346, Signalchem) enzyme; purchased Signalchem
T2 sequence (Q92918 1-346): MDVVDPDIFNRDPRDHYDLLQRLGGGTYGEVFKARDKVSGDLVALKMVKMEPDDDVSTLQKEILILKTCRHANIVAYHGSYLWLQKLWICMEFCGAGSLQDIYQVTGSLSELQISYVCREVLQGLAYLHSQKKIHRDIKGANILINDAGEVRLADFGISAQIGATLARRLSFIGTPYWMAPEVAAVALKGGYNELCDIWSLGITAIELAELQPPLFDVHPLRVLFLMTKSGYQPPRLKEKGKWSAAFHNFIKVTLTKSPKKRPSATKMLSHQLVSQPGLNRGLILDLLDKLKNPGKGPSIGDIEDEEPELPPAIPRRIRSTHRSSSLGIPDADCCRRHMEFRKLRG
Method in brief: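 Human GST-HPK1(1-346), 3 ng, reacted with 3 uM ATP and specific substrate in 40 mM Tris-HCl pH 7.4, 20 mM MgCl2, 0.5 mg/mL BSA, 50 uM DTT for 2 h at 25° C. ADP-Glo luminescence read; IC50 (nM) relative to untreated solvent control.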

MV4-11 cells = assay: AML cell proliferation inhibitory activity (CellTiter-Glo); assay type: cell-based; details: Homo sapiens, 72 hours
Method in brief: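 RS4;11 and MV4-11 cells in RPMI-1640 with 10% FBS, seeded 24 h before treatment, then exposed 72 h to 12 three-fold dilutions (0.3 nM–50 μM final). Viability by CellTiter-Glo luminescence relative to solvent control; GI50 from triplicate experiments.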

FLT3(ITD) = assay: scanMAX kinase assay panel; assay type: binding; details: 1 μM
Method in brief: (§1)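 Compound was applied as a 1 μM solution in DMSO across the scanMAX kinase panel. Activity is reported as % control, scaled between a positive control (0%) and the DMSO negative control (100%).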

FLT3 = biological target: T3, FLT3 (Homo sapiens, UniProt P36888); assay: scanMAX kinase assay panel; assay type: binding; details: read-out: control percentage (% control)
T3 construct: purchased DiscoverX scanMAX kinase assay panel
T3 sequence (P36888 27-993): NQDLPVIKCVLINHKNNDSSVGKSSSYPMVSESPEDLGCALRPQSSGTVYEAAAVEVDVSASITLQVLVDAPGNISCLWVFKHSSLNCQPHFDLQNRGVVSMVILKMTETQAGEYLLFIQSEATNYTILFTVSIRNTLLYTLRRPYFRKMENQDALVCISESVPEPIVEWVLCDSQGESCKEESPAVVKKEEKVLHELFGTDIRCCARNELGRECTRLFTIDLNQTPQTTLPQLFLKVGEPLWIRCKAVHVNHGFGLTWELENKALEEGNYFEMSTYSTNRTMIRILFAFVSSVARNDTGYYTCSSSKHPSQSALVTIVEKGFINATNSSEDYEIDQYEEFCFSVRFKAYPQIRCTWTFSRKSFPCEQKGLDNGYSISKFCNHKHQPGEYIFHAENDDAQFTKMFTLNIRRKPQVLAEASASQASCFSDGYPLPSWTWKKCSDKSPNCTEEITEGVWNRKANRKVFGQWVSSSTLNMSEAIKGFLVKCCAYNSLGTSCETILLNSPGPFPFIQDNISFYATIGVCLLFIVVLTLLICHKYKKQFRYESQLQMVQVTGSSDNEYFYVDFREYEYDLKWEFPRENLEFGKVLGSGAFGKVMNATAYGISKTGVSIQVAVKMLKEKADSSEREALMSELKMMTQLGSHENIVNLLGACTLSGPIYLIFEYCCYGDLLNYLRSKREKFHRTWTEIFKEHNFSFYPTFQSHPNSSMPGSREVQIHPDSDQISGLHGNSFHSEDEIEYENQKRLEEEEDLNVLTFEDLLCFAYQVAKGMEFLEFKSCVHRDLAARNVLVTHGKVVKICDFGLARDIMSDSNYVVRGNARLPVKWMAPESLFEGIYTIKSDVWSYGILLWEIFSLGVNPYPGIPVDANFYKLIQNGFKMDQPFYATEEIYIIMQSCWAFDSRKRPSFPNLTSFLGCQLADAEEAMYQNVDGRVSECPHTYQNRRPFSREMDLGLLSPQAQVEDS
Method in brief: as §1

PIK4CB = biological target: T4, PIK4CB (Homo sapiens, UniProt Q9UBF8); assay: scanMAX kinase assay panel; assay type: binding; details: read-out: control percentage (% control)
T4 construct: purchased DiscoverX scanMAX kinase assay panel
T4 sequence (Q9UBF8 whole entry): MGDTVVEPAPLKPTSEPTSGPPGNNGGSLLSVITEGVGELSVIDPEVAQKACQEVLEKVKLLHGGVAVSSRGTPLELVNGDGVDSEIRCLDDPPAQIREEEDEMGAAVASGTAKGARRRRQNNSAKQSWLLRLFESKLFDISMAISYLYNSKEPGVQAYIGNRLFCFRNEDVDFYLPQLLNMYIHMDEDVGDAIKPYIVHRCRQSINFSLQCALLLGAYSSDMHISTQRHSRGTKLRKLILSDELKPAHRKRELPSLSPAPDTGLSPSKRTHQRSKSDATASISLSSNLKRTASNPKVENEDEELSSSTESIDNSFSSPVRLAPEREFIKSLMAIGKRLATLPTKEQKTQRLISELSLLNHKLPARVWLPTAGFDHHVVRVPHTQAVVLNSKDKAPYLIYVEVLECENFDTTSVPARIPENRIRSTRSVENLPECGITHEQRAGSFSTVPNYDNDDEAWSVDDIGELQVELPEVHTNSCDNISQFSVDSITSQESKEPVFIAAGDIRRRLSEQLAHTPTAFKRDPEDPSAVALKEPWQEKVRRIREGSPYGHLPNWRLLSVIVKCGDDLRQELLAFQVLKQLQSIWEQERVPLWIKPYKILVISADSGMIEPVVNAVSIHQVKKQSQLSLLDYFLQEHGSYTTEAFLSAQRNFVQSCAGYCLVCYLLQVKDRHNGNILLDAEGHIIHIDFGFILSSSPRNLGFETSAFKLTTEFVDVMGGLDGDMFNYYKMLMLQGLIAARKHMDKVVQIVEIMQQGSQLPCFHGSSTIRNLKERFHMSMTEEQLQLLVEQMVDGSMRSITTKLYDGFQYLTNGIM
Method in brief: as §1

RET(V804M) = biological target: T5, RET(V804M) (Homo sapiens, UniProt P07949, V804M); assay: scanMAX kinase assay panel; assay type: binding; details: read-out: control percentage (% control)
T5 construct: purchased DiscoverX scanMAX kinase assay panel
T5 sequence (P07949 29-1114 V804M): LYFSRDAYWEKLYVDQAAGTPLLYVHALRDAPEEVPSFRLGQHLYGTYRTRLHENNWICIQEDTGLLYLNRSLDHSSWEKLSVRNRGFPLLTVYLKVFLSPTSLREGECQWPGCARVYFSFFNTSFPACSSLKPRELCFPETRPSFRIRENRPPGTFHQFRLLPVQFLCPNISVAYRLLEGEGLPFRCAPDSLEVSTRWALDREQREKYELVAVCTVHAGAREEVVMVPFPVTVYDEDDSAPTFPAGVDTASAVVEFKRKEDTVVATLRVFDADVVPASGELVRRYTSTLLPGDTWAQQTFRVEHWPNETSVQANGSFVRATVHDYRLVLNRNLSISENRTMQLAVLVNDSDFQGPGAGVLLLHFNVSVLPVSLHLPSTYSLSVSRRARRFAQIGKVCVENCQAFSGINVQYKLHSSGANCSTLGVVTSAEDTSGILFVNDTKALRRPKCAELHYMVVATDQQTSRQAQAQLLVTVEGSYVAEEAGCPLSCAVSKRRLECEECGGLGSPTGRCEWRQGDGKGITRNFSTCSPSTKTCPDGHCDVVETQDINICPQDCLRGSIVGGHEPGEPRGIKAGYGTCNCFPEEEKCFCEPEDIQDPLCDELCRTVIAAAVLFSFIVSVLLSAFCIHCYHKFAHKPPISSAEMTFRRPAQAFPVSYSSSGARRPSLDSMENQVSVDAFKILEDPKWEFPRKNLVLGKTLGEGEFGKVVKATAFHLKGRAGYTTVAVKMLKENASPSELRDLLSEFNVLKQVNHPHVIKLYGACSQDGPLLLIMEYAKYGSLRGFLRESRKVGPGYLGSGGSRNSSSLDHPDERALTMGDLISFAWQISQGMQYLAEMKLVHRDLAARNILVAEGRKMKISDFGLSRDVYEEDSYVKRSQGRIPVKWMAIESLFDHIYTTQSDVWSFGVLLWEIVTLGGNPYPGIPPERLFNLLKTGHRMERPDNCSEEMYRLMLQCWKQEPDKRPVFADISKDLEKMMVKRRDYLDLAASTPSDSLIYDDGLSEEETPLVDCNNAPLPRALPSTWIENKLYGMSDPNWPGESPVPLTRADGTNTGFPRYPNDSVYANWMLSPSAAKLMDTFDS
Method in brief: as §1

EGFR(E746-A750del) = biological target: T6, EGFR(E746-A750del) (Homo sapiens, UniProt P00533, DEL746-750); assay: scanMAX kinase assay panel; assay type: binding; details: read-out: control percentage (% control)
T6 construct: purchased DiscoverX scanMAX kinase assay panel
Method in brief: as §1

HPK1 = biological target: T7, HPK1 (Homo sapiens, UniProt Q92918); assay: scanMAX kinase assay panel; assay type: binding; details: read-out: control percentage (% control)
T7 construct: purchased DiscoverX scanMAX kinase assay panel
Method in brief: as §1

CDK4 = biological target: T8, CDK4 (Homo sapiens, UniProt P11802); assay: scanMAX kinase assay panel; assay type: binding; details: read-out: control percentage (% control)
T8 construct: purchased DiscoverX (scanMAX panel, contract assay)
T8 sequence (P11802 whole entry): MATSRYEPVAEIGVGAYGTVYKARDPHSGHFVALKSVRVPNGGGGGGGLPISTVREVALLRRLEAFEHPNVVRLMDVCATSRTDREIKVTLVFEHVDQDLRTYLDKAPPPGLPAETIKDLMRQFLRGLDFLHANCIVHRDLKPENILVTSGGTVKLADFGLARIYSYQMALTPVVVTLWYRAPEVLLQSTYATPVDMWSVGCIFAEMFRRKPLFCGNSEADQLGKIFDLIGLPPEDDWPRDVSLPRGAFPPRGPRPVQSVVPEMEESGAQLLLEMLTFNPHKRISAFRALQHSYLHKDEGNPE
Method in brief: as §1

PRP4 = biological target: T9, PRP4 (Homo sapiens, UniProt Q13523); assay: scanMAX kinase assay panel; assay type: binding; details: read-out: control percentage (% control)
T9 construct: purchased DiscoverX scanMAX kinase assay panel
Method in brief: as §1

MAP3K2 = biological target: T10, MAP3K2 (Homo sapiens, UniProt Q9Y2U5); assay: scanMAX kinase assay panel; assay type: binding; details: read-out: control percentage (% control)
T10 construct: purchased DiscoverX scanMAX kinase assay panel
T10 sequence (Q9Y2U5 whole entry): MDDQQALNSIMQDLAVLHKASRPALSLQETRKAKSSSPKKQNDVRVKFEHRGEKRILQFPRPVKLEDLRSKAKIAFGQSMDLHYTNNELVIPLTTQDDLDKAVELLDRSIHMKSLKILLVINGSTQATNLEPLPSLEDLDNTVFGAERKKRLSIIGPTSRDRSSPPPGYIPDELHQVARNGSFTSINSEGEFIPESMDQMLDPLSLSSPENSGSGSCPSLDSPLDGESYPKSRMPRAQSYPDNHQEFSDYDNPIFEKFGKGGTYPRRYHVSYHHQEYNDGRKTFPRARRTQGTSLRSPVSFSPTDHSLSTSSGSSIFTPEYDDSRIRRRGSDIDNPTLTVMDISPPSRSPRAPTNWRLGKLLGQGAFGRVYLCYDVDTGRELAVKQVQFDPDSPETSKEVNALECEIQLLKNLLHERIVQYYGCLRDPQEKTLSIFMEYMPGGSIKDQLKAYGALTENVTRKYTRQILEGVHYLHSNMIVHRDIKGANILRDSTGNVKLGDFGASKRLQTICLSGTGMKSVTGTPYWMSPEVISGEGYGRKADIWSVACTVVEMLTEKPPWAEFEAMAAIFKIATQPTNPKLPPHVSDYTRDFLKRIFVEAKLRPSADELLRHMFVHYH
Method in brief: as §1

MEK1 = biological target: T11, MEK1 (Homo sapiens, UniProt Q02750); assay: scanMAX kinase assay panel; assay type: binding; details: read-out: control percentage (% control)
T11 construct: purchased DiscoverX scanMAX kinase assay panel
T11 sequence (Q02750 whole entry): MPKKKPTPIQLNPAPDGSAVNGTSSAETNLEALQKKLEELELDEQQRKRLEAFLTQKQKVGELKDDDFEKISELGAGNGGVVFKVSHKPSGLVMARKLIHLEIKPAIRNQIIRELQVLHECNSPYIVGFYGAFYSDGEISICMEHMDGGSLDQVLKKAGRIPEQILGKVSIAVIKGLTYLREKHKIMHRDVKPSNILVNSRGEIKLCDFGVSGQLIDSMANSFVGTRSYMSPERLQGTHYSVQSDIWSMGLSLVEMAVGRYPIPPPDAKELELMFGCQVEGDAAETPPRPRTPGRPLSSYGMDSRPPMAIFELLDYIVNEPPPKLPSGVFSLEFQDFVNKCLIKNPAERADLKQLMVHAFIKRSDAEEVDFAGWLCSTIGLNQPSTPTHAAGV
Method in brief: as §1

[3] = biological target: T12, TYK2(JH1domain-catalytic) (Homo sapiens, UniProt P29597); assay: scanMAX kinase assay panel; assay type: binding; details: read-out: control percentage (% control)
T12 construct: TYK2(JH1domain-catalytic); purchased DiscoverX
T12 sequence (P29597 897-1176 limits assumed): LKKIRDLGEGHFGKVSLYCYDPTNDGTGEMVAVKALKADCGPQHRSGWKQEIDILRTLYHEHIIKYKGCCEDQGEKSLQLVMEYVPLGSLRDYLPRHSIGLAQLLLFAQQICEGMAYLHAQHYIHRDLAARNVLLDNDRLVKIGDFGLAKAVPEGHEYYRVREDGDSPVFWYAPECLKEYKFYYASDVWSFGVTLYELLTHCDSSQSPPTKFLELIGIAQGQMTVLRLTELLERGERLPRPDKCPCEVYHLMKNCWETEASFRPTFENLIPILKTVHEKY
Method in brief: as §1

PAK3 = biological target: T13, PAK3 (Homo sapiens, UniProt O75914); assay: scanMAX kinase assay panel; assay type: binding; details: read-out: control percentage (% control)
T13 construct: purchased DiscoverX scanMAX kinase assay panel
Method in brief: as §1

T1 sequence (P11802 whole entry): as the sequence (P11802 whole entry) above
T1 sequence (P24385 whole entry partner): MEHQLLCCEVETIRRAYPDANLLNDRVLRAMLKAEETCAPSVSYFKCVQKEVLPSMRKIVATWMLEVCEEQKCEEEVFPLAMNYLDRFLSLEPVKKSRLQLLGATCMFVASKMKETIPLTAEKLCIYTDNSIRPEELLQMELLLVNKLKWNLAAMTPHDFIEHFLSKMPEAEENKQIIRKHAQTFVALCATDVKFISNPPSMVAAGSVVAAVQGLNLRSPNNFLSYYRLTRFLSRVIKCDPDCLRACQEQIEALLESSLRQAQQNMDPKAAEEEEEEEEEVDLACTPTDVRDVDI

In the case of CN1CCN(c2ccc(Nc3nc(N4OCC[C@H]4c4ccccc4)c4cc[nH]c4n3)cc2)CC1 [Example 74, (S)-N-(4-(4-methylpiperazin-1-yl)phenyl)-4-(3-phenylisoxazolidin-2-yl)-7H-pyrrolo[2,3-d]pyrimidin-2-amine], the remaining binding at 1 µM (CDK4-cyclinD1 [1]) is reported as 0.55%, the IC50 (CDK4-cyclinD1 [2]) is reported as ≥ 250 nM and the IC50 (human GST-HPK1 (1-346)) is reported as ≥ 250 nM. The GI50 (MV4-11 cells) was ≥ 250 nM, the “control percentage (% control)” value (FLT3(ITD)) was 0.45% and the remaining binding at 1 µM (FLT3) was 3.9%. It also gave a remaining binding at 1 µM (PIK4CB) of 16%, a remaining binding at 1 µM (RET(V804M)) of 3.9% and a remaining binding at 1 µM (EGFR(E746-A750del)) of 0%. The remaining binding at 1 µM (HPK1) was 0.85%, the remaining binding at 1 µM (CDK4) was 10% and the remaining binding at 1 µM (PRP4) was 20%. The remaining binding at 1 µM (MAP3K2) was 14%, the remaining binding at 1 µM (MEK1) was 16% and the remaining binding at 1 µM [3] was 5.6%. It also gave a remaining binding at 1 µM (PAK3) of 23%.
